Measurements reported in patent publication EP0796041B1, “NEW HERBICIDAL COMPOSITIONS” (RHONE-POULENC AGRO, priority 1994, dated 1996).

Assays:
Test in all cases: Field trial Europe (Experiment A1), pre-emergence weed control in maize
Format in all cases: in vivo
[1] = system: Amaranthus retroflexus; conditions: ALZONNE, 46DAT
Protocol: (§1) The following experiments were conducted on Compound A and Compound B in various field research stations in Europe during May. Compound A (as a 750 g/kg water dispersible granule formulation) and Compound B (as a 600 g/kg water dispersible granule formulation) were tested at the following dose rates (note that hereafter ai means active ingredient): Compound A : 50, 75, 100, 125 g ai/ha Compound B : 240, 360, 480, 600 g ai/ha Compound A + Compound B : 50 + 240/360/480 g ai/ha 75 + 240/360/480 g ai/ha 100 + 240/360/480 g ai/ha Trial and application conditions are given below in Table 1 (in the Tables that follow DAT means days after treatment): Table 1 [table] Weeds were drilled on the same day as maize. All trials were sprayed pre-emergence of the maize on the same day as drilling or within 2 days afterwards. Soil conditions were warm and wet, so that the crop and weeds emerged and grew quickly. Rainfall or irrigation occurred within 15 days of application. In this Table "Obs" is the observed value the value in brackets (Exp) is the expected value calculated using the Colby formula.

[2] = system: Echinochloa crus-galli
Protocol: as §1

[3] = system: Polygonum lapathifolium; conditions: CHAZAY, 64DAT
Protocol: as §1

[4] = system: Setaria viridis; conditions: BOLOGNA, 54DAT
Protocol: as §1

CS(=O)(=O)c1cc(C(F)(F)F)ccc1C(=O)c1cnoc1C1CC1 [Cpd A, 5-cyclopropyl-4-(2-methylsulphonyl-4-trifluoromethyl)benzoylisozaxole]
percentage phytotoxicity Obs ([1]; Cpd A 50 g a.i./ha): 72%
percentage phytotoxicity Obs ([1]; Cpd A 75 g a.i./ha): 70%
percentage phytotoxicity Obs ([1]; Cpd A 100 g a.i./ha): 80%
percentage phytotoxicity Obs ([1]; Cpd A 125 g a.i./ha): 95%
percentage phytotoxicity Obs ([2]; ALZONNE, 46DAT, Cpd A 50 g a.i./ha): 45%
percentage phytotoxicity Obs ([2]; ALZONNE, 46DAT, Cpd A 75 g a.i./ha): 35%
percentage phytotoxicity Obs ([2]; ALZONNE, 46DAT, Cpd A 100 g a.i./ha): 82%
percentage phytotoxicity Obs ([2]; ALZONNE, 46DAT, Cpd A 125 g a.i./ha): 85%
percentage phytotoxicity Obs ([2]; BOLOGNA, 54DAT, Cpd A 50 g a.i./ha): 77%
percentage phytotoxicity Obs ([2]; BOLOGNA, 54DAT, Cpd A 75 g a.i./ha): 91%
percentage phytotoxicity Obs ([2]; BOLOGNA, 54DAT, Cpd A 100 g a.i./ha): 75%
percentage phytotoxicity Obs ([2]; BOLOGNA, 54DAT, Cpd A 125 g a.i./ha): 100%
percentage phytotoxicity Obs ([3]; Cpd A 50 g a.i./ha): 50%
percentage phytotoxicity Obs ([3]; Cpd A 75 g a.i./ha): 90%
percentage phytotoxicity Obs ([3]; Cpd A 100 g a.i./ha): 70%
percentage phytotoxicity Obs ([3]; Cpd A 125 g a.i./ha): 95%
percentage phytotoxicity Obs ([4]; Cpd A 50 g a.i./ha): 62%
percentage phytotoxicity Obs ([4]; Cpd A 75 g a.i./ha): 82%
percentage phytotoxicity Obs ([4]; Cpd A 100 g a.i./ha): 82%
percentage phytotoxicity Obs ([4]; Cpd A 125 g a.i./ha): 97%

CC(C)N(C(=O)COc1nnc(C(F)(F)F)s1)c1ccc(F)cc1 [Cpd B, N-isopropyl-(5-trifluoromethyl-1,3,4-thiadiazol-2-yl)-4-(4'-fluoro-oxyacetanilide)]
percentage phytotoxicity Obs ([1]; Cpd B 240 g a.i./ha): 30%
percentage phytotoxicity Obs ([1]; Cpd B 360 g a.i./ha): 10%
percentage phytotoxicity Obs ([1]; Cpd B 480 g a.i./ha): 67%
percentage phytotoxicity Obs ([1]; Cpd B 600 g a.i./ha): 45%
percentage phytotoxicity Obs ([2]; ALZONNE, 46DAT, Cpd B 240 g a.i./ha): 45%
percentage phytotoxicity Obs ([2]; ALZONNE, 46DAT, Cpd B 360 g a.i./ha): 65%
percentage phytotoxicity Obs ([2]; ALZONNE, 46DAT, Cpd B 480 g a.i./ha): 77%
percentage phytotoxicity Obs ([2]; ALZONNE, 46DAT, Cpd B 600 g a.i./ha): 90%
percentage phytotoxicity Obs ([2]; BOLOGNA, 54DAT, Cpd B 240 g a.i./ha): 35%
percentage phytotoxicity Obs ([2]; BOLOGNA, 54DAT, Cpd B 360 g a.i./ha): 52%
percentage phytotoxicity Obs ([2]; BOLOGNA, 54DAT, Cpd B 480 g a.i./ha): 65%
percentage phytotoxicity Obs ([2]; BOLOGNA, 54DAT, Cpd B 600 g a.i./ha): 75%
percentage phytotoxicity Obs ([3]; Cpd B 240 g a.i./ha): 25%
percentage phytotoxicity Obs ([3]; Cpd B 360 g a.i./ha): 0%
percentage phytotoxicity Obs ([3]; Cpd B 480 g a.i./ha): 25%
percentage phytotoxicity Obs ([3]; Cpd B 600 g a.i./ha): 40%
percentage phytotoxicity Obs ([4]; Cpd B 240 g a.i./ha): 85%
percentage phytotoxicity Obs ([4]; Cpd B 360 g a.i./ha): 82%
percentage phytotoxicity Obs ([4]; Cpd B 480 g a.i./ha): 86%
percentage phytotoxicity Obs ([4]; Cpd B 600 g a.i./ha): 82%
